# From patent US20160193250A1, “CHORION-DERIVED MSCS CELLS AND CONDITIONED MEDIA AS INDUCER FOR ANGIOGENESIS APPLICATION FOR THE TREATMENT OF CARDIAC DEGENERATION” (CELLS FOR CELLS, priority 2013, published 2016)
# Legend:
# [1] = system: genes involved in cardio-myogenesis (NKX2-5, GATA-4, MEF2C, MYH7B, GJA1, TNNT2); assay: Cardio-myogenic induction with 5-azacytidine, relative gene expression by RT-qPCR; assay type: cell-based, human; conditions: all MSC sources treated with 5-aza, 30 days of culture after induction
# Description: In order to assess chorion, decidua, gelatin of Wharton, and bone marrow MSCs cardio-myogenic potential, 3000 cells per cm^2 of each one of the MSCs were planted in biologic triplicate (3 different donors) in a plate of 6, leaving 3 bowls for induced condition and other 3 for control condition. This method was developed to obtain cells for assessment through RT-qPCR. However, in order to assess protein expression through indirect immunofluorescence (IFI), cells were planted on a […] circular glass cover placed on a 24-bowl plate, leaving 12 bowls for induced condition and 12 bowls for control condition. […]
# The polymerase chain reaction in real time, preceded by reverse transcription (RT-qPCR), was based on quantification kinetics that allowed calculating the messenger RNA through the recording of PCR product forming in real time. This was the quantification, during the reaction exponential stage, of amplified PCR products and labeled with fluorochrome. In this work, a relative quantification of genes of interest was carried out, i.e. a gene of interest expression level is obtained compared to another one that keeps its expression constant and is called standardizing gene; therefore, in this thesis human gene B2M was selected as standardizing. […]
# MSCs = assay: MSC morphology during cardiac induction with 5-aza; assay type: cell-based, human; conditions: MSCs treated with 5-aza
# Description: In order to establish morphology changes occurred in MSCs treated with 5-aza, photographs were taken daily for later analysis. […] After 20 days, confluence in both conditions was quite similar and reached 100%. In some dishes, it was common to find a reduced percentage (10%) of cells with vacuoles inside them. On the other hand, it was also noted that a large percentage (approximately 70%) of cells adopted a rounded and flat morphology, while other presented a longish tubular morphology which, in some cases, were multi-core.
# For induction, MSCs we incubated with DMEM, 2% FBS, 1% Pen/Strep, 1% L-glutamine, supplemented with 10 μM 5-zacitidine (Sigma, USA) during 24 hours, and kept in a humidified and thermo-regulated incubator at 37° C. and 5% CO2. Later, they were removed from the induction medium, cells were washed three times with PBS 1× adjusted to ph 7.4 (Life Technologies, USA), and cultured in a maintenance medium during 30 days, being renewed every three days. The control condition corresponded to cells submitted to DMEM 2% FBS with no 5-aza during 24 hours, and then cultured in maintenance medium during 30 days.
smiles,measurement,setting,value
"Nc1ncn([C@@H]2O[C@H](CO)[C@@H](O)[C@H]2O)c(=O)n1 [5-aza, 5-azacytidine]",relative expression of all genes associated to cardio-myogenesis compared to control,[1],significant increase
same,percentage of cells with rounded and flat morphology,MSCs,approximately 70%
same,percentage of cells with vacuoles inside them,MSCs; in some dishes,10%
